We go through two compounds from US20130295551A1, “MICROFLUIDIC DEVICE AND METHOD FOR MODULATING A GAS ENVIRONMENT OF CELL CULTURES AND TISSUES” (THE BOARD OF TRUSTEES OF THE UNIVERSITY OF ILLINOIS, priority 2012, published 2013).

Holding throughout (format): cell-based, C57BL/6 mice
In assay [1] the test system is islets. Put plainly: Islet insulin secretion, off-chip insulin ELISA. The protocol: The effects of hypoxia and intermittent hypoxia preconditioning on calcium were paralleled by changes in insulin secretion and mitochondrial potential, as measured by off-chip insulin ELISA and Rhodamine 123 fluorescence, respectively. Insulin fractions were collected at 1 minute intervals during flow, with a stop-flow incubation period during the glucose exposure, as shown in FIG. 10A. The hypoxic pulse rendered insulin response down to basal levels (even drifting below baseline) while preconditioning improved insulin to 85% of normoxia while exposed to hypoxia. However, all insulin samples were collected in the same manner to account for this issue. Mitochondria hyperpolarization, monitored with Rhodamine uptake and self-quenching, was improved with IH preconditioning compared to hypoxia exposure alone. […] Islets were incubated in 100 μM diazoxide for 10 minutes and washed in Krebs buffer for 10 minutes prior to hypoxia and glucose stimulation. […] Both mitochondrial hyperpolarization and insulin secretion were improved with diazoxide compared to IH+5HD, as shown in FIG. 10B. […] Glucose and Krebs buffer flow were only introduced while washing or stimulating the islets, and flow was stopped at all other times. […] The plates were read in a Biotek Synergy 2 plate reader. […] FURA was excited at 340 and 380 nm and measured at 510 nm while Rho123 was excited at 495 nm and measured at 530 nm FURA measurements were expressed as a ratio of 340 nm over 380 nm intensities. […] The data was then normalized against the standard normoxic pulse to minimize variation between experiments and the results were expressed as “FURA Ratio %”. Rho123 measurement and the associated hyperpolarization drop were also analyzed similarly by normalizing against a normoxic standard. The insulin ELISA timepoints, measured in ng/mL, was expressed as an index of the maximum value over the baseline average to account for the stop flow during glucose/hypoxic incubation and also varying number of islets in the experiments. […]
A general note: An ELISA detects its analyte on a solid surface through an enzyme-linked reagent.

In assay [2] the test system is islets. Description: Islet glucose-stimulated calcium response (FURA ratio) under hypoxia in microfluidic device. The protocol: To quantify their response to hypoxia, FURA-incubated islets were loaded into the multimodal device and exposed to 21%, 10%, and 5% oxygen while monitoring their calcium responses. In the GSIR mechanism, the calcium response correlates with insulin secretion, thus a stimulatory glucose pulse will result in a pulse in intracellular calcium. Under 21% oxygen flow, normoxic for ex vivo islets, the calcium responded with standard bi-phasic profile with magnitudes 1.3 times above their baseline, as shown in FIG. 8A. Note that subsequent hypoxic conditions were normalized against this normoxic pulse. When the islets were exposed to 5% hypoxia for 30 minutes (under zero flow), their calcium response lost both pulse magnitude as well as phase information. […] Quantitatively, the pulse height was depressed below 50% of the normoxic pulse, for both 10% and 5% hypoxia.
Islets were incubated in 100 μM diazoxide for 10 minutes and washed in Krebs buffer for 10 minutes prior to hypoxia and glucose stimulation. […] Both mitochondrial hyperpolarization and insulin secretion were improved with diazoxide compared to IH+5HD, as shown in FIG. 10B.
C57BL/6 mice were sacrificed as islet donors for the murine islet experiments. 5 ml collagenase P solution at 0.375 mg/ml in HBSS was prepared for each animal and kept on ice. The animal was euthanized with CO2 and 3% isoflurane followed by cervical dislocation to ensure no discomfort. The animal was disinfected with 70% ethanol before making a V-incision at the genital area and moving the bowel to clearly expose the bile duct. The ampulla on the surface of duodenum was clamped with a hemostat. The pancreas was then distended (inflated) through the bile duct with a 30-gauge needle with 5 ml syringe containing 2 ml of cold collagenase solution, starting at the gall bladder. The pancreas was then removed and placed in a 15 ml tube containing 2 ml of collagenase solution in a 37° C. water bath for 12 minutes. Then, 10 ml of cold HBSS was added to stop the digestion when 80% of the pancreas has disintegrated. […]

Assay [3] has as its system islets. Description: Islet mitochondrial hyperpolarization by Rhodamine 123 fluorescence. The protocol:
The effects of hypoxia and intermittent hypoxia preconditioning on calcium were paralleled by changes in insulin secretion and mitochondrial potential, as measured by off-chip insulin ELISA and Rhodamine 123 fluorescence, respectively. Insulin fractions were collected at 1 minute intervals during flow, with a stop-flow incubation period during the glucose exposure, as shown in FIG. 10A. The hypoxic pulse rendered insulin response down to basal levels (even drifting below baseline) while preconditioning improved insulin to 85% of normoxia while exposed to hypoxia. However, all insulin samples were collected in the same manner to account for this issue. Mitochondria hyperpolarization, monitored with Rhodamine uptake and self-quenching, was improved with IH preconditioning compared to hypoxia exposure alone. […] Islets were incubated in 100 μM diazoxide for 10 minutes and washed in Krebs buffer for 10 minutes prior to hypoxia and glucose stimulation. […] Both mitochondrial hyperpolarization and insulin secretion were improved with diazoxide compared to IH+5HD, as shown in FIG. 10B. […] All fluids perfused through the MIIH device were prepared in Krebs Ringer bicarbonate buffer: 129 mM NaCl, 5 mM NaHCO3, 4.7 mM KCl, 1.2 mM KH2PO4, 1 mM CaCl2.2H2O, 1.2 mM MgSO4.7H2O, 10 mM HEPES pH 7.35-7.40. […] FURA was excited at 340 and 380 nm and measured at 510 nm while Rho123 was excited at 495 nm and measured at 530 nm FURA measurements were expressed as a ratio of 340 nm over 380 nm intensities. […] The data was then normalized against the standard normoxic pulse to minimize variation between experiments and the results were expressed as “FURA Ratio %”. Rho123 measurement and the associated hyperpolarization drop were also analyzed similarly by normalizing against a normoxic standard. The insulin ELISA timepoints, measured in ng/mL, was expressed as an index of the maximum value over the baseline average to account for the stop flow during glucose/hypoxic incubation and also varying number of islets in the experiments. […]

The mark [4] stands for this setting: 100 μM diazoxide, 5% hypoxia, FIG. 10B.
Setting [5] is: 100 μM diazoxide, not statistically significant.

`CCCCCC(O)CCCC(=O)O` (stereo not drawn) [5HD, 5-hydroxydecanoic acid]: the “preconditioned insulin response with 5HD” value in assay [1] (IH plus 5HD) is listed as “decoupling of preconditioned insulin response”. Also, the “preconditioning of islets under hypoxia (FURA profile)” value in assay [2] (IH (1 m/1 m cycle, 60 min total) and 100 μM 5HD simultaneously) is “failed to be preconditioned”. The “mitochondrial hyperpolarization with 5HD” value in assay [3] (IH plus 5HD) is recorded as “decreased mitochondrial hyperpolarization”.

On to `CC1=NS(=O)(=O)c2cc(Cl)ccc2N1` [diazoxide], for which, in assay [1] (setting [4]), the “insulin secretion compared to IH+5HD” value was “improved”. Moreover, in assay [1] (setting [5]), the “insulin response compared to IH preconditioning alone” value is reported as “higher average”. Also, the “preconditioning of islets under hypoxia (glucose calcium response)” value in assay [2] (100 μM diazoxide 10 minutes, washed in Krebs buffer 10 minutes prior to 5% hypoxia and glucose stimulation) is given as “provided preconditioning benefits”. Moreover, the “calcium response compared to IH preconditioning alone” value in assay [2] (setting [5]) is reported as “higher average”. In addition, in assay [3] (setting [4]), the “mitochondrial hyperpolarization compared to IH+5HD” value was “improved”. In addition, the “mitochondrial hyperpolarization compared to IH preconditioning alone” value in assay [3] (setting [5]) was “less than that of IH preconditioning alone”.
